Tests used:
Test in all cases: relative viability (nuclei count vs DMSO), 5 days (fraction); higher = more cells survive
[1] = compound: C1=CC(=CC=C1NC(=S)NNC2=C(C=C(C=C2[N+](=O)[O-])C(F)(F)F)[N+](=O)[O-])F [Kobe2602] + C[C@@H](Oc1cc(-c2cnn(C3CCNCC3)c2)cnc1N)c1c(Cl)ccc(F)c1Cl [Crizotinib] (partner 1 µM)
Procedure, shortened: (§1)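 Relative viability divides the nuclei count in treated wells by that in vehicle wells. Lung cancer cell lines were seeded in 1536-well plates, dosed by pin tool the next day, and fixed and stained after 5 days in one step with final 0.05% Triton X-100, 1% formaldehyde and 1 ug/ml Hoechst. Dosing was a single drug or a fixed anchor-drug dose plus five library-drug doses (not always all listed) in √10 steps, and values are medians of duplicate plates imaged at 4×.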

[2] = compound: C1=CC(=CC=C1NC(=S)NNC2=C(C=C(C=C2[N+](=O)[O-])C(F)(F)F)[N+](=O)[O-])F [Kobe2602] + C[C@]1(O)C[C@@H](c2nc(-c3ccc4ccc(-c5ccccc5)nc4c3)c3c(N)nccn32)C1 [Linsitinib] (partner 1 µM)
Procedure, shortened: as §1

[3] = compound: C1=CC(=CC=C1NC(=S)NNC2=C(C=C(C=C2[N+](=O)[O-])C(F)(F)F)[N+](=O)[O-])F [Kobe2602] + Nc1ncn([C@H]2C[C@H](O)[C@@H](CO)O2)c(=O)n1 [Decitabine] (partner 2 µM)
Procedure, shortened: as §1

[4] = compound: O[C@@H](COc1cccc2ncccc12)CN1CCN([C@@H]2c3ccccc3[C@@H]3[C@H](c4ccccc42)C3(F)F)CC1 [Zosuquidar] + CC(C)C[C@H](NC(=O)[C@H](Cc1ccccc1)NC(=O)c1cnccn1)B(O)O [Bortezomib] (partner 0.002 µM)
Procedure, shortened: as §1

Row | Cell Line | relative viability ([1]; first compound 0.2 µM) | relative viability ([1]; first compound 0.6325 µM) | relative viability ([1]; first compound 2 µM) | relative viability ([1]; first compound 6.325 µM) | relative viability ([1]; first compound 20 µM) | relative viability ([2]; first compound 0.2 µM) | relative viability ([2]; first compound 0.6325 µM) | relative viability ([2]; first compound 2 µM) | relative viability ([2]; first compound 6.325 µM) | relative viability ([2]; first compound 20 µM) | relative viability ([3]; first compound 0.2 µM) | relative viability ([3]; first compound 0.6325 µM) | relative viability ([3]; first compound 2 µM) | relative viability ([3]; first compound 6.325 µM) | relative viability ([3]; first compound 20 µM) | relative viability ([4]; first compound 0.01 µM) | relative viability ([4]; first compound 0.03162 µM) | relative viability ([4]; first compound 0.1 µM) | relative viability ([4]; first compound 0.3162 µM) | relative viability ([4]; first compound 1 µM)
1 | HCC-44 | 0.771 | 0.697 | 0.767 | 0.783 | 0.749 | 0.739 | 0.668 | 0.632 | 0.624 | 0.766 | 0.993 | 0.894 | 0.897 | 0.896 | 0.91 | 0.872 | 0.949 | 0.885 | 0.952 | 0.864
2 | HCC-78 | 0.382 | 0.302 |  | 0.333 | 0.363 | 0.61 | 0.495 |  | 0.459 | 0.611 | 0.65 | 0.711 | 0.6 | 0.724 | 0.727 | 0.582 | 0.392 |  | 0.625 | 0.428
3 | HCC-366 | 0.434 | 0.597 | 0.494 | 0.569 | 0.655 | 0.711 | 0.743 | 0.629 | 0.664 | 0.647 | 0.31 | 0.337 | 0.333 | 0.34 | 0.36 | 0.946 | 1.03 | 1.06 | 1.08 | 1.07
4 | HCC-827 | 0.925 | 0.921 | 0.903 | 0.91 | 0.859 | 0.902 | 0.936 | 0.925 | 0.955 | 0.922 | 0.354 | 0.266 | 0.355 | 0.325 | 0.404 | 0.931 | 0.961 | 1.05 | 1.05 | 0.844
5 | HOP-62 | 0.803 | 0.9 | 0.961 | 0.873 | 0.962 | 0.837 | 1.11 | 0.974 | 1.01 | 1.12 | 0.236 | 0.203 | 0.201 | 0.251 | 0.243 | 0.6 | 1.01 | 0.616 | 0.42 | 0.906
6 | IA-LM | 0.64 | 0.671 | 0.718 | 0.789 | 0.703 | 0.506 | 0.462 | 0.632 | 0.476 | 0.573 |  |  |  |  |  | 0.925 | 0.797 | 0.975 | 1.03 | 0.84
7 | LC-2-ad | 0.433 | 0.465 | 0.464 | 0.547 | 0.494 | 0.849 | 0.833 | 0.774 | 0.867 | 0.865 | 0.664 | 0.888 | 0.943 | 0.825 | 0.815 | 1.07 | 0.975 | 0.989 | 1.26 | 0.933
8 | LK-2 | 0.248 | 0.273 | 0.231 | 0.271 | 0.257 | 0.618 | 0.614 | 0.415 | 0.643 | 0.567 | 0.379 | 0.293 | 0.283 | 0.313 | 0.442 |  |  |  |  | 
9 | NCI-H358 | 0.598 | 0.597 | 0.581 | 0.746 | 0.652 | 0.684 | 0.77 | 0.771 | 0.758 | 0.732 | 0.222 | 0.219 | 0.225 | 0.177 | 0.244 |  |  |  |  | 
